This is an account of results in patent US20110200626A1, “IQGAP3 EPITOPE PEPTIDES AND VACCINES CONTAINING THE SAME” (Oncotherapy Science, Inc., priority 2008, published 2011).

The test system of experiment [1] is COS7 cells transfected with IQGAP3 and HLA-A*2402. As to the kind of experiment: Specific CTL activity against target cells exogenously expressing IQGAP3 and HLA-A*2402. The format is cell-based. The text has this:
The cDNA encoding an open reading frame of target gene or HLA-A24 was amplified by PCR. The PCR-amplified product was cloned into pCAGGS vector. The plasmids were transfected into COS7, which is the target gene and HLA-A24-null cell line, using lipofectamine 2000 (Invitrogen) according to the manufacturer's recommended procedures. After 2 days from transfection, the transfected cells were harvested with versene (Invitrogen) and used as the target cells (5×10^4 cells/well) for CTL activity assay.

Experiment [2] has as its system peptide-pulsed A24LCL cells. As to the kind of experiment: IFN-gamma ELISA assay on CTL lines (HLA-A*2402). The format is cell-based, human. The conditions noted are these: target cells pulsed with corresponding peptide vs without peptide. (In an ELISA, binding on a coated surface is turned into a signal by an enzyme label.)
Experiment [3] deals with peptide-pulsed A24LCL cells. As to the kind of experiment: IFN-gamma ELISPOT assay on CTLs induced with HLA-A*2402 restricted peptides. Particulars: against peptide-pulsed target cells compared with control without peptide, listed as IQGAP3-A24-9-779. The format is cell-based, human.
In experiment [4] the test system is peptide-pulsed T2 cells. As to the kind of experiment: IFN-gamma ELISA assay on CTL clones established by limiting dilution (HLA-A*0201). The format is cell-based, human. Particulars: peptide-pulsed target cells. As for the experimental part:
The dilutions were made to have 0.3, 1, and 3 CTLs/well in 96 round-bottomed micro titer plate (Nalge Nunc International). CTLs were cultured with 1×10^4 cells/well of 2 kinds of human B-lymphoblastoid cell lines, 30 ng/ml of anti-CD3 antibody, and 125 U/ml of IL-2 in a total of 150 and/well of AIM-VMedium containing 5% AS. 50 mcl/well of IL-2 were added to the medium 10 days later so to reach a final concentration of 125 U/ml IL-2. CTL activity was tested on the 14th day, and CTL clones were expanded using the same method as described above (Uchida N et al., Clin Cancer Res 2004 Dec. 15, 10(24): 8577-86; Suda T et al., Cancer Sci 2006 May, 97(5): 411-9; Watanabe T et al., Cancer Sci 2005 August, 96(8): 498-506).
Specifically, peptide-pulsed A24 or T2 LCL (1×10^4/well) was prepared as stimulator cells. Cultured cells in 48 wells were used as responder cells. IFN-gamma ELISPOT assay and IFN-gamma ELISA assay were performed under manufacture procedure.

The subject of experiment [5] is peptide-pulsed T2 cells. As to the kind of experiment: IFN-gamma ELISA assay on CTL lines (HLA-A*0201). The conditions noted are these: target cells pulsed with corresponding peptide vs without peptide. The format is cell-based, human.
The test system of experiment [6] is peptide-pulsed T2 cells. As to the kind of experiment: IFN-gamma ELISPOT assay on CTLs induced with HLA-A*0201 restricted peptides. In kind it is cell-based, human. The conditions noted are these: against peptide-pulsed target cells compared with control without peptide.
The subject of experiment [7] is COS7 cells transfected with IQGAP3 and HLA-A*0201. As to the kind of experiment: Specific CTL activity against target cells exogenously expressing IQGAP3 and HLA-A*0201. In kind it is cell-based. The conditions noted are these: for specific CTL activity of CTL clone against controls: COS7 cells expressing either HLA-A*0201 or IQGAP3 alone; for specific CTL activity of CTL clone: COS7 cells transfected with both IQGAP3 and HLA-A*0201. The text has this: The cDNA encoding an open reading frame of target genes or HLA-A*0201 was amplified by PCR. The PCR-amplified products were cloned into pCAGGS vector. The plasmids were transfected into COST, which is the target genes and HLA-A*0201-negative cell line, using lipofectamine 2000 (Invitrogen) according to the manufacturer's recommended procedures. After 2 days from transfection, the transfected cells were harvested with versene (Invitrogen) and used as the target cells (5×10^4 cells/well) for CTL activity assay

“Also recorded” adds a separate entry of the source. Ends that are not written are not given here.

In the case of IYLEWLQYF [SEQ ID NO: 7], the “specific CTL activity of CTL line against controls” value in experiment [1] (COS7 cells expressing either HLA-A*2402 or IQGAP3 alone) is on record as “no significant specific CTL activity”. In addition, in experiment [1] (COS7 cells transfected with both IQGAP3 and HLA-A*2402, listed as IQGAP3-A24-9-779), the “specific CTL activity of CTL line” value is listed as “potent CTL activity; also recorded: specific CTL activity”. Further, the “IFN-gamma production of established CTL lines (ELISA)” value in experiment [2] is recorded as “potent IFN-gamma production”. Further, the “IFN-gamma production of peptide-induced CTLs (ELISPOT)” value (“IFN-gamma production … (ELISPOT)” for short) in experiment [3] is “potent IFN-gamma production ability”.
Consider “GLVDeLAKDI (GLVDELAKDI; not fully specified (residue 5); printed as GLVDeLAKDI) [SEQ ID NO: 145]”, for which the “IFN-gamma production of CTL clones (ELISA)” value with peptide-pulsed T2 cells [4] (listed as IQGAP3-A02-10-1461) is “potent IFN-gamma production”. In the experiment on peptide-pulsed T2 cells [5], the “IFN-gamma production of established CTL lines (ELISA)” value was “potent IFN-gamma production”. In the experiment on peptide-pulsed T2 cells [6] (listed as IQGAP3-A02-10-1461), the “IFN-gamma production … (ELISPOT)” value was “potent IFN-gamma production ability”.
Take GLDDVSLPV [SEQ ID NO: 85]: in the experiment with peptide-pulsed T2 cells [4] (listed as IQGAP3-A02-9-553), the “IFN-gamma production of CTL clones (ELISA)” value is reported as “potent IFN-gamma production”. Also, the “IFN-gamma production of established CTL lines (ELISA)” value in the experiment on peptide-pulsed T2 cells [5] is given as “potent IFN-gamma production”. Besides, the “IFN-gamma production … (ELISPOT)” value in the experiment with peptide-pulsed T2 cells [6] (listed as IQGAP3-A02-9-553) was “potent IFN-gamma production ability”. Further, the “specific CTL activity of CTL clone against controls” value in experiment [7] is “no significant specific CTL activity”. For the same substance, the “specific CTL activity of CTL clone” value in experiment [7] (listed as IQGAP3-A02-9-553) is “potent CTL activity; also recorded: specific CTL activity”.
With “LLYYrFLNPA (LLYYRFLNPA; not fully specified (residue 5); printed as LLYYrFLNPA) [SEQ ID NO: 121]”, in the experiment with peptide-pulsed T2 cells [4] (listed as IQGAP3-A02-10-1174), the “IFN-gamma production of CTL clones (ELISA)” value is “potent IFN-gamma production”. Also, in the experiment on peptide-pulsed T2 cells [5], the “IFN-gamma production of established CTL lines (ELISA)” value was “potent IFN-gamma production”. Also, the “IFN-gamma production … (ELISPOT)” value with peptide-pulsed T2 cells [6] (listed as IQGAP3-A02-10-1174) is “potent IFN-gamma production ability”.
Turning to VLNDYLEET [SEQ ID NO: 99], the “IFN-gamma production of established CTL lines (ELISA)” value in the experiment with peptide-pulsed T2 cells [5] was “potent IFN-gamma production”. In addition, in the experiment on peptide-pulsed T2 cells [6] (listed as IQGAP3-A02-9-1234), the “IFN-gamma production … (ELISPOT)” value is reported as “potent IFN-gamma production ability”. Also, the “specific CTL activity of CTL clone against controls” value in experiment [7] is given as “no significant specific CTL activity”. For the same substance, in experiment [7] (listed as IQGAP3-A02-9-1234), the “specific CTL activity of CTL clone” value was “potent CTL activity; also recorded: specific CTL activity”.
For SLFLFRLGL [SEQ ID NO: 75], in the experiment with peptide-pulsed T2 cells [4] (listed as IQGAP3-A02-9-146), the “IFN-gamma production of CTL clones (ELISA)” value is given as “potent IFN-gamma production”. For the same substance, the “IFN-gamma production of established CTL lines (ELISA)” value in the experiment on peptide-pulsed T2 cells [5] was “potent IFN-gamma production”. Further, the “IFN-gamma production … (ELISPOT)” value in the experiment with peptide-pulsed T2 cells [6] (listed as IQGAP3-A02-9-146) is given as “potent IFN-gamma production ability”.
Regarding “LLAKlGHCFA (LLAKLGHCFA; not fully specified (residue 5); printed as LLAKlGHCFA) [SEQ ID NO: 143]”, the “IFN-gamma production of CTL clones (ELISA)” value in the experiment with peptide-pulsed T2 cells [4] (listed as IQGAP3-A02-10-67) was “potent IFN-gamma production”. Further, the “IFN-gamma production of established CTL lines (ELISA)” value in the experiment with peptide-pulsed T2 cells [5] is listed as “potent IFN-gamma production”. Also, the “IFN-gamma production … (ELISPOT)” value in the experiment with peptide-pulsed T2 cells [6] (listed as IQGAP3-A02-10-67) was “potent IFN-gamma production ability”.
